Measured values taken from US7671054B1, “Reverse-turn mimetics and method relating thereto” (Choongwae Pharma Corporation, priority 2001, dated 2010).
Read-outs that look alike come from different tables or passages of the source.

How the values were obtained:
Type in all cases: cell-based
HCT116 cells = test: Growth inhibition assay (MTS); conditions: Homo sapiens, HCT116 cells, 48 hours treatment, MTS, read-out: Growth Inhibition (GI50, uM) HCT116
Method in brief: (§1)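 Cells seeded at 10^4 per well, grown 24 h at 37° C, then exposed to compound at various concentrations for 48 hours. MTS added for 2 h; absorbance at 490 nm gave viability, with cytotoxicity calculated per concentration against pre-treatment reading.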

SW480 cells = test: Growth inhibition assay (MTS); conditions: Homo sapiens, SW480 cells, 48 hours treatment, MTS, read-out: Growth Inhibition (GI50, uM) SW480
Method in brief: as §1

[1] = system: TCF4/β-catenin transcription (TOPFlash) in SW480 cells; test: Reporter gene assay (TOPFlash luciferase); conditions: Homo sapiens, SW480, Table 4; Reporter gene assay as described in Example 6; read-out: IC50
Method in brief: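 SW480 cells transiently co-transfected with TOPFlash and pRL-null (4:1 µg) using Superfect, then reseeded at 3×10^4 cells/well and incubated overnight at 37 °C. Compound treatment lasted 24 h before luciferase read-out.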

Compound | GI50 (HCT116 cells; HCT-116, 48 h, Table 5) [µM] | GI50 (SW480 cells; SW480, 48 h, Table 5) [µM] | further results
C=CCN1CC(=O)N2[C@@H](Cc3ccc(O)cc3)C(=O)N(Cc3cccc4cccnc34)C[C@@H]2N1C(=O)NCc1ccccc1 [Compound 100] | 0.4 ± 0.1 | 0.3 ± 0.03 | –
CN(Cc1ccccc1N)c1cccc(CN2C[C@H]3N(C(=O)CN(C)N3C(=O)NCc3ccccc3)[C@@H](Cc3ccc(O)cc3)C2=O)c1 [Compound 65] | 4.7 | 7.3 | –
C#CCN1CC(=O)N2[C@@H](Cc3ccc(O)cc3)C(=O)N(Cc3ccc(C)c(N4CCOCC4)c3)C[C@@H]2N1C(=O)NCc1ccccc1 [Compound 106] | 2.8 ± 0.4 | 4.5 ± 0.3 | –
C=CCN1CC(=O)N2[C@@H](Cc3ccc(O)cc3)C(=O)N(Cc3ccc4[nH]nnc4c3)C[C@@H]2N1C(=O)NCc1ccccc1 [Compound 108] | 37.9 ± 5.7 | 24.9 ± 2.2 | –
CN1CC(=O)N2[C@@H](Cc3ccc(O)cc3)C(=O)N(Cc3cccc4cnn(CCN5CCOCC5)c34)C[C@@H]2N1C(=O)NCc1ccccc1 [Compound 69] | 9.7 ± 1 | 17.9 ± 3.1 | –
Cc1cc(C)c(N(C)C)c(CN2C[C@H]3N(C(=O)CN(C)N3C(=O)NCc3ccccc3)[C@@H](Cc3ccc(O)cc3)C2=O)c1 [Compound 28] | 5.47 | 3.57 | –
C=CCN1CC(=O)N2[C@@H](Cc3ccc(O)cc3)C(=O)N(Cc3cccc(OC(F)(F)F)c3)C[C@@H]2N1C(=O)NCc1ccccc1 [Compound 176] | 1.7 ± 0.1 | 1.7 ± 0.2 | –
CN1CC(=O)N2[C@@H](Cc3ccc(O)cc3)C(=O)N(Cc3ccc(F)cc3C(F)(F)F)C[C@@H]2N1C(=O)NCc1ccccc1 [Compound 23] | 25.4 | 3.9 | –
C=CCN1CC(=O)N2[C@@H](Cc3ccc(O)cc3)C(=O)N(Cc3cccc4c3OCCO4)C[C@@H]2N1C(=O)NCc1ccccc1 [Compound 173] | – | – | GI50 (HCT116 cells; HCT-116, Table 5): 0.8 ± 0.1 µM; GI50 (SW480 cells; Table 5): 0.6 ± 0.1 µM
C=CCN1CC(=O)N2[C@@H](Cc3ccc(O)cc3)C(=O)N(Cc3cccc(OCCN4CCOCC4)c3)C[C@@H]2N1C(=O)NCc1ccccc1 [Compound 104] | < 0.4 | < 0.4 | –
C=CC[C@@H]1CC(=O)N2[C@H](CN(Cc3cccc4cn[nH]c34)C(=O)[C@@H]2Cc2ccc(O)cc2)N1C(=O)NCc1ccccc1 | – | – | GI50 (HCT116 cells; HCT-116, 48 h, Example 21): 2.3 µM; GI50 (SW480 cells; SW480, 48 h, Example 21): 2 µM
CN1CC(=O)N2[C@@H](Cc3ccc(O)cc3)C(=O)N(Cc3ccc(F)cc3)C[C@@H]2N1C(=O)NCc1ccccc1 [Compound 12] | – | – | GI50 (HCT116 cells; HCT-116, Table 5): 1.48 µM; GI50 (SW480 cells; Table 5): 2.54 µM
C=CCN1CC(=O)N2[C@@H](Cc3ccc(O)cc3)C(=O)N(Cc3cccc4cccnc34)C[C@@H]2N1C(=O)NCc1ccc(Cl)c(Cl)c1 [Compound 169] | 1 ± 0.2 | 0.8 ± 0.1 | –
C#CCN1CC(=O)N2[C@@H](Cc3ccc(O)cc3)C(=O)N(Cc3ccc(Cl)c(N4CCOCC4)c3)C[C@@H]2N1C(=O)NCc1ccccc1 [Compound 112] | 4.7 ± 0.3 | 5.1 ± 0.5 | –
C=CC[C@@H]1CC(=O)N2[C@H](CN(Cc3cccc(OC)c3OC)C(=O)[C@@H]2Cc2ccc(O)cc2)N1C(=O)NCc1ccccc1 | – | – | GI50 (HCT116 cells; HCT-116, 48 h, Example 21): 4.91 µM; GI50 (SW480 cells; SW480, 48 h, Example 21): 4.1 µM
CCCN1CC(=O)N2[C@@H](Cc3ccc(O)cc3)C(=O)N(Cc3cccc4cccnc34)C[C@@H]2N1C(=O)NCc1ccccc1 [Compound 94] | 0.7 ± 0.07 | 1.1 ± 0.3 | –
C=CCN1CC(=O)N2[C@@H](Cc3ccc(O)cc3)C(=O)N(Cc3cccc4sc(Cl)nc34)C[C@@H]2N1C(=O)NCc1ccccc1 [Compound 187] | 1 ± 0.1 | 1 ± 0.1 | –
CC(C)N(C)c1cc([C@@H](C)N2C[C@H]3N(C(=O)CN(C)N3C(=O)NCc3ccccc3)[C@@H](Cc3ccc(O)cc3)C2=O)ccc1F [Compound 39] | 19.7 ± 3.3 | 22.8 ± 6.5 | –
CCCN1CC(=O)N2[C@@H](Cc3ccc(O)cc3)C(=O)N(Cc3ccc(Cl)c(N(C)C)c3)C[C@@H]2N1C(=O)NCc1ccccc1 [Compound 98] | 4.4 ± 0.5 | 7 ± 1.1 | –
C[C@H](c1ccc(F)cc1F)N1C[C@H]2N(C(=O)CN(C)N2C(=O)NCc2ccccc2)[C@@H](Cc2ccc(O)cc2)C1=O [Compound 165] | 24.4 ± 1.9 | 22.8 ± 0.9 | –
CN1CC(=O)N2[C@@H](Cc3ccc(O)cc3)C(=O)N(Cc3cccc4c3cnn4Cc3ccccc3N)C[C@@H]2N1C(=O)NCc1ccccc1 [Compound 63] | 1.3 ± 0.1 | 18.8 ± 4.8 | –
CN(C1CC1)C1CC=CC=C1CN1C[C@H]2N(C(=O)CN(C)N2C(=O)NCc2ccccc2)[C@@H](Cc2ccc(O)cc2)C1=O (stereo partly shown) [Compound 31] | 5 ± 1 | 8.1 ± 0.7 | –
C=CCN1CC(=O)N2[C@@H](Cc3ccc(O)cc3)C(=O)N(Cc3ccc4c(c3)OCCN4C)C[C@@H]2N1C(=O)NCc1ccccc1 [Compound 119] | 9.5 ± 1.1 | 10 ± 1.3 | –

Compound | GI50 (HCT116 cells; HCT-116, 48 h, Table 5) [µM] | GI50 (SW480 cells; SW480, 48 h, Table 5) [µM] | further results
CN1CC(=O)N2[C@@H](Cc3ccc(O)cc3)C(=O)N(Cc3cccc4cn(Cc5cccc(N)c5)nc34)C[C@@H]2N1C(=O)NCc1ccccc1 [Compound 66] | 5.8 ± 0.3 | 3 ± 0.3 | –
CN1CC(=O)N2C(CN(Cc3cc(F)c(F)c(F)c3)C(=O)[C@@H]2Cc2ccc(O)cc2)N1C(=O)NCc1ccccc1 (stereo in doubt) [Compound 16] | 2.95 | 4.18 | IC50 [1]: 3.8 µM
CN1CC(=O)N2[C@@H](Cc3ccc(O)cc3)C(=O)N(Cc3cccc(OCCN4CCOCC4)c3)C[C@@H]2N1C(=O)NCc1ccccc1 [Compound 102] | 4.9 ± 1.2 | 2.5 ± 0.4 | –
CN1CC(=O)N2[C@@H](Cc3ccc(O)cc3)C(=O)N(Cc3cccc(N4CCCCC4)c3)C[C@@H]2N1C(=O)NCc1ccccc1 [Compound 48] | 15.5 ± 2.3 | 20.7 ± 2.8 | –
C[C@H](c1ccccc1)N1C[C@H]2N(C(=O)CN(C)N2C(=O)NCc2ccccc2)[C@@H](Cc2ccc(O)cc2)C1=O [Compound 19] | 1.17 | 2.66 | –
Cc1ccc(N(C)C)c(CN2C[C@H]3N(C(=O)CN(C)N3C(=O)NCc3ccccc3)[C@@H](Cc3ccc(O)cc3)C2=O)c1 [Compound 29] | 7.93 | 16 | –
C=CCN1CC(=O)N2[C@@H](Cc3ccc(O)cc3)C(=O)N([C@@H](C)c3ccc(Cl)c4cccnc34)C[C@@H]2N1C(=O)NCc1ccccc1 [Compound 155] | 23.3 ± 1.2 | 26.3 ± 2.5 | –
CN1CC(=O)N2[C@@H](Cc3ccc(O)cc3)C(=O)N(Cc3ccc(Cl)c(Cl)c3)C[C@@H]2N1C(=O)NCc1ccccc1 [Compound 4] | 1.91 | 1.99 | –
C=CCN1CC(=O)N2[C@@H](Cc3ccc(O)cc3)C(=O)N(Cc3ccc(Cl)c4scnc34)C[C@@H]2N1C(=O)NCc1ccccc1 [Compound 193] | 1.1 ± 0.1 | 0.8 ± 0.1 | –
CCCN1CC(=O)N2[C@@H](Cc3ccc(NC=O)cc3)C(=O)N(Cc3ccc(F)cc3F)C[C@@H]2N1C(=O)NCc1ccccc1 [Compound 130] | 10.7 ± 1.7 | 17.3 ± 1.2 | –
CN1CC(=O)N2[C@@H](Cc3ccc(O)cc3)C(=O)N(Cc3cccc4[nH]ncc34)C[C@@H]2N1C(=O)NCc1ccccc1 [Compound 47] | 12.2 | 6.2 | –
C[C@H]1[C@@H]2N(C(=O)CN(C)N2C(=O)NCc2ccccc2)[C@@H](Cc2ccc(O)cc2)C(=O)N1Cc1ccc(F)cc1F [Compound 45] | 2.9 ± 0.4 | 2.5 ± 0.2 | –
CN1CC(=O)N2[C@@H](Cc3ccc(O)cc3)C(=O)N(Cc3ccc(Cl)cc3)C[C@@H]2N1C(=O)NCc1ccccc1 [Compound 3] | 2.39 | 2.73 | –
COC(=O)c1ccccc1Cn1ncc2c(CN3C[C@H]4N(C(=O)CN(C)N4C(=O)NCc4ccccc4)[C@@H](Cc4ccc(O)cc4)C3=O)cccc21 [Compound 74] | 2.4 ± 0.3 | 1.3 ± 0.4 | –
C=CCN1CC(=O)N2[C@@H](Cc3ccc(O)cc3)C(=O)N(Cc3ccc(OC)cc3)C[C@@H]2N1C(=O)NCc1ccccc1 [Compound 178] | 1.5 ± 4.4 | 1.6 ± 0.2 | –
CCCN1CC(=O)N2[C@@H](Cc3ccc(O)cc3)C(=O)N(Cc3cccc(N4CCOCC4)c3)C[C@@H]2N1C(=O)NCc1ccccc1 [Compound 96] | 3.4 ± 0.4 | 3.7 ± 0.4 | –
CN1CC(=O)N2[C@@H](Cc3ccc(O)cc3)C(=O)N(Cc3cccc4cnn(Cc5ccccc5[N+](=O)[O-])c34)C[C@@H]2N1C(=O)NCc1ccccc1 [Compound 51] | 2.8 | 3 ± 0.1 | –
CN1CC(=O)N2[C@@H](Cc3ccc(O)cc3)C(=O)N(Cc3cc(F)c(F)c(F)c3)C[C@@H]2N1C(=O)NCc1ccccc1 [Compound 17] | 0.74 | 1.12 | –
C=CCN1CC(=O)N2[C@@H](Cc3ccc(O)cc3)C(=O)N(Cc3ccccc3)C[C@@H]2N1C(=O)NCc1ccccc1 [Compound 134] | 0.8 ± 0.7 | 1.4 ± 0.4 | –
CCCN(C)c1cccc(CN2C[C@H]3N(C(=O)CN(C)N3C(=O)NCc3ccccc3)[C@@H](Cc3ccc(O)cc3)C2=O)c1 [Compound 34] | 6.4 ± 1.3 | 13.8 ± 2.4 | –
CC(C)N(C)c1cc(CN2C[C@H]3N(C(=O)CN(C)N3C(=O)NCc3ccccc3)[C@@H](Cc3ccc(O)cc3)C2=O)ccc1Cl [Compound 33] | 28.6 ± 2 | > 50 | –
C#CCn1cc2c(CN3C[C@H]4N(C(=O)CN(C)N4C(=O)NCc4ccccc4)[C@@H](Cc4ccc(O)cc4)C3=O)cccc2n1 [Compound 71] | 3.6 ± 0.7 | 4.6 ± 0.5 | –
